Laboratory results as given in patent US12440471B2, “Compositions and methods for the treatment of bronchopulmonary dysplasia (BPD) and BPD-associated pulmonary hypertension” (AyuVis Research, Inc., priority 2021, dated 2025).

Tests used:
pre-term lamb BPD model [1] = assay: Pre-term lamb BPD model: respiratory severity score; assay type: in vivo
Excerpt: A unique PT lamb model, developed by Dr. Albertine (University of Utah), was used to emulate the clinical setting for PT human infants with respiratory failure related to premature birth before the lungs are mature enough to support extra-uterine life. Both the PT lamb model and PT human infants are whole-organism physiological beings that have the setting of PT birth and prolonged ventilation support with oxygen-rich gas because of respiratory failure related to lung structural and functional immaturity, including surfactant deficiency. Ventilation support with oxygen-rich gas is for days, weeks, months, and is associated with co-morbidities of the brain, liver, distal ileum, and kidney injury, and inadequate nutrition and poor postnatal growth. This PT lamb model for BPD continues to provide mechanistic insights during the evolution of BPD (Joss-Moore, Metcalfe et al. 2010), development of multiple-organ dysfunction (Albertine 2012, Abdullah, Seidel et al. 2016), and long-term structural and functional impairments (Dahl, Bowen et al. 2018).
A dose range-finding study was conducted with the goal of treating two PT lambs with either a vehicle control or low, mid, and high doses of AVR-48 (compound 8) by twice daily intravenous infusions during 6 to 7 days of mechanical ventilation, followed by transition to noninvasive respiratory support (NIS) for 3 days, for a total of 10 days of management of these PT lambs. Compound 8 was not given during the period of noninvasive respiratory support to assess short-term persistence of effect of compound 8. The PK and PD parameters for compound 8 were also determined.
The modified PT lamb model used 6 d to 7 d of mechanical ventilation for respiratory management to identify temporal pathogenesis of the disease. […]
A total 9 lambs were used for this study. […] The PK parameters were calculated following both non-Compartmental Pharmacokinetic Modeling and population Pharmacokinetic Modeling as described by Roberts et al previously (Roberts, Stockmann et al. 2016). […] The blood samples also were analyzed for hematology and liver enzymes. […]

pre-term lamb BPD model [2] = assay: Pre-term lamb BPD model: lung histopathology and radial alveolar count; assay type: in vivo
Excerpt: Detailed methods have been published previously by Reyburn et al. and Null et al (Reyburn, Li et al. 2008, Null, Alvord et al. 2014), relevant portions incorporated herein by reference. All protocols have been adhered to APS/NIH guidelines for animal research and have been approved by the Institution Animal Care and Use Committees (IACUC) at the University of Utah. Lung injury in PT neonates, including PT lambs, that are mechanically ventilated (MV) is the classical picture of alveolar simplification. Alveolar simplification is evident as distended terminal respiratory units that have few secondary septa and thick, cellular mesenchyme.
The micrographs show terminal respiratory units (TRU) of the lung at the same magnification. […] Radial alveolar count is the number of tissue intersections across a terminal respiratory unit, from the center of the respiratory bronchiole to the perimeter of the terminal respiratory unit.

[3] = Oral PK of nanomilled formulations in adult SD rats; assay type: in vivo, rat; settings: oral formulation, 100 mg/kg
Experimental: The test item, the stabilizer (HPC-SSL) and the surfactant (SDS) were accurately weighed and transferred in a 15-mL amber glass jar charged with 6 mL of yttrium-stabilized zirconia beads (0.8 mm). The suspension was brought to final weight with water in order to achieve the desired final concentration. The formulation was mixed using a vortex for at least 1 minute and then homogenized using a roller mill (Unitized Jar Mill, Model 755 RMV from U.S. Stoneware (purchased from Fisher Scientific Canada cat #08-381-1) at 50 rpm for 48 hours.
For the animal study, the suspensions prepared at 50 mg/mL were diluted to 10 mg/mL using a blank vehicle prepared using the same proportions of excipients as those indicated in Table I. By diluting the concentrated suspension of AVR-84 a clear solution was obtained whereas for AVR-48 the solution was a homogeneous cloudy solution.
Animals and dosing: The male SD rats (N=3) were obtained from Charles River. Each animal was weighed before the administration of the test item. […] At the specified time points, t=15′, 30′, 1 h, 2 h, 3 h, 4 h, 6 h, 8 h and 24 h (N=3), blood (100 μL) was collected via the saphenous vein using MINIVETTE® POCT K3-EDTA. The blood samples were centrifuged for 10 min at 965 g and 4° C. within 30 min of collection, to obtain plasma. Plasma samples were kept frozen at −80° C. The plasma samples were thawed on ice and kept on ice during the sample preparation. Thirty μL of plasma samples were mixed with 75 μL of precipitation solution (80% acetonitrile and 20% methanol containing IS) was added. Samples were mixed and centrifuged at 3500 rpm for 10 min at 4° C. Forty μL of the supernatant was transferred to a 96 well plate, and 80 μL of water+0.1% formic acid was added and analyzed using the in house developed HPLC method.

CC(=O)N[C@@H]1C(Oc2ccc([N+](=O)[O-])cc2)OC(CO)C(O)C1O (stereo partly drawn) [AVR-48]
Respiratory Severity Score (RSS) (pre-term lamb BPD model [1]; 3.0 mg/kg IV, n=4, lowest RSS): 2.4
Respiratory Severity Score (RSS) vs placebo (pre-term lamb BPD model [1]; 1.0 and 3.0 mg/kg IV, 2/d, 7 days): Significant improvement
highest efficacious dose (RSS) (pre-term lamb BPD model [1]; IV twice daily): 3.0 mg/kg
radial alveolar count / alveoli formation (pre-term lamb BPD model [2]; 3.0 mg/Kg, preliminary results): promotes alveoli formation
alveolar simplification (lung histopathology) (pre-term lamb BPD model [2]; vs vehicle treated PT lamb): significantly improved
Cmax ([3]; male, SD (Sprague-Dawley), rat, plasma, adult rats n=3 (repeat of figure legend), read-out: Cmax): 3.64 ± 0.66 µM
Tmax ([3]; male, SD (Sprague-Dawley), rat, plasma, adult rats n=3, read-out: Tmax): 42 ± 18 min
half-life ([3]; male, SD (Sprague-Dawley), rat, plasma, adult rats n=3, read-out: half-life (T v2) (converted)): 36 ± 24 min
plasma concentration profile [3]: linear decline in drug concentration
